Experimental data published in patent US20080107679A1, “Skin care compositions including hexapeptide complexes and methods of their manufacture” (priority 2003, published 2008).

Tests used:
[1] = system: skin; assay: Clinical evaluations of the hexapeptide complex: moisture content; type: in vivo; settings: after 15 minutes of use
Excerpt: (§1) The combination of ingredients of the skin care compositions of the present invention are believed to provide synergistic benefits which are otherwise not available with any one of the components used by itself. Clinical evaluations based on the use of the hexapeptide complex itself evidenced a reduction in fine lines and wrinkles, including laugh lines, frown lines, and smile lines, by approximately 13% after 2 weeks and approximately 33% in 4 weeks of use. It was further observed that 100% of participants experienced a reduction in under-eye fine lines and wrinkles on the average of approximately 16% after 4 weeks and approximately 52% after 8 weeks of use. Additionally, an increase in moisture content by 37% after 15 minutes of use was observed.

[2] = system: fine lines and wrinkles; assay: Clinical evaluations of the hexapeptide complex: fine lines and wrinkles; type: in vivo
Excerpt: as §1

## acetyl hexapeptide-3 [hexapeptide complex]
[1]
  increase in moisture content: 37%
[2]; after 2 weeks
  reduction in fine lines and wrinkles, including laugh lines, frown lines, and smile lines: approximately 13%
[2]; after 4 weeks
  average reduction in under-eye fine lines and wrinkles: approximately 16%
[2]; after 8 weeks of use
  average reduction in under-eye fine lines and wrinkles: approximately 52%
[2]; in 4 weeks of use
  reduction in fine lines and wrinkles, including laugh lines, frown lines, and smile lines: approximately 33%
[2]; in vivo
  participants who experienced a reduction in under-eye fine lines and wrinkles: 100%
